Data published in PubChem BioAssay AID1963873 (Molecular Pharmacology Branch, DTP, NCI, 2024).

System: 276233-004-R-J1-PDC KRAS spheroids with HUVEC/MSC, viability
Test: Anticancer human tumor 276233-004-R-J1-PDC patient-derived colon adenocarcinoma cell line growth inhibition [KRAS2]
Details: for IC50: curve of first compound; for viability, T/C: stronger effect = lower value
Excerpt: Multicellular complex tumor spheroid response to RAS pathway inhibitors in combination with a targeted agents in patient-derived cell lines with oncogenic KRAS variants from multiple cancer types
A high-throughput screen of multi-cell type tumor spheroids was designed to identify active combinations of targeted small molecules and KRAS pathway inhibitors. Complex spheroids include a stromal component modeled by human endothelial cells (HUVEC) and fibroblasts modeled by human mesenchymal stem cells (MSCs). The concentration ranges selected for each drug and investigational agent were based upon clinically achievable concentrations if the clinical Cmax of the agent was known.
Compounds. The drugs and investigational agents: BI-3406 (NSC825286), BAY-293 (NSC824723), batoprotafib (TNO155; NSC825523), sotorasib (AMG 510; NSC818433), MRTX1257 (NSC819558), elimusertib (BAY 1895344; NSC800525), molibresib (GSK525762; NSC774829), temuterkib (LY3214996; NSC803410), venetoclax (NSC766270), alisertib (NSC759677), olaparib (NSC753686), talazoparib (NSC767125), erdafitinib (NSC781556), ipatasertib (NSC767898), cabozantinib (NSC761068), nintedanib (NSC756659), abemaciclib (NSC768073), docetaxel (NSC628503), trametinib (NSC758246), and sapanisertib (NSC764658) were obtained from the National Cancer Institute (NCI) Developmental Therapeutics Program Chemical Repository. The FDA-approved anticancer drug set is available from the Developmental Therapeutics Program. […] The stock solutions were prepared in dimethyl sulfoxide (DMSO, Sigma-Aldrich, St. Louis, MO, cat. D2650) at 800-fold the tested concentration and stored at -70 degrees C prior to their use. All drugs and investigational agents were tested over a range starting from a high concentration at or near the clinical Cmax and decreasing in half-log increments. If the clinical Cmax for an agent had not been determined, the highest concentration tested was 10 microM.
Cell Culture. All cells were maintained in an incubator at 37 degrees C and 5% CO2 with 95% humidity. The PDC lines were cultured according to standard operating procedures established by the NCI PDMR (https://pdmr.cancer.gov/sops/default.htm). Briefly, all PDCs were thawed and cultured in Matrigel-coated flasks prepared with a working solution of 1X Ham's F-12 nutrient mix, without supplementation (Invitrogen, Waltham, MA, cat. 11765054), 100 U/mL penicillin-streptomycin (Invitrogen, cat. 15140122), and 2.5% Matrigel (Corning Inc., Corning, NY, cat. 354248) for the first three passages. All PDCs were cultured in complete DMEM/F-12 media containing advanced DMEM/F-12 (Invitrogen, cat. 12634028), 4.9% defined fetal bovine serum, heat inactivated (HyClone Laboratories Inc., Logan, UT, cat. SH30070.03HI), 389 ng/mL hydrocortisone (Sigma-Aldrich, cat. H4001), 9.7 ng/mL human EGF recombinant protein (Invitrogen, cat. PHG0313), 23.4 microg/mL adenine (Sigma-Aldrich, cat. A2786), 97.3 U/mL penicillin-streptomycin (Invitrogen, cat. 15140122), 1.9 mM L-glutamine (Invitrogen, cat. 25030081), and 9.7 microM Y-27632 dihydrochloride (Tocris Bioscience, Bristol, United Kingdom, cat. 1254). The PDCs were cultured in complete DMEM/F12 media without 9.7 microM Y-27632 dihydrochloride for at least two passages prior to the screen. The established cell line HOP-62 was cultured in RPMI 1640 medium, HEPES (Invitrogen, cat. 22400105) with 10% defined fetal bovine serum (HyClone Laboratories Inc., cat. SH30070.03) and 2 mM L-glutamine (Invitrogen, cat. 25030081). The pooled donor HUVEC were cultured in endothelial cell growth medium 2 (PromoCell, Heidelberg, Germany, cat. C-22011) and the hMSC were cultured in mesenchymal stem cell growth medium 2 (PromoCell, cat. C-28009). For all experiments, HUVEC and hMSC were used at passages </=5, while the malignant cell lines were used at passages </=15. […]

[1] = second compound 0.1 µM, first compound 0.0316 µM
[2] = second compound 0.1 µM, first compound 0.1 µM
[3] = second compound 0.1 µM, first compound 0.316 µM
[4] = second compound 0.1 µM, first compound 1 µM
[5] = second compound 0.1 µM, first compound 3.16 µM
[6] = second compound 0.1 µM, first compound 10 µM
[7] = second compound 0.316 µM, first compound 0.0316 µM
[8] = second compound 0.316 µM, first compound 0.1 µM
[9] = second compound 0.316 µM, first compound 0.316 µM
[10] = second compound 0.316 µM, first compound 1 µM
[11] = second compound 0.316 µM, first compound 3.16 µM
[12] = second compound 0.316 µM, first compound 10 µM
[13] = second compound 1 µM, first compound 0.0316 µM
[14] = second compound 1 µM, first compound 0.1 µM
[15] = second compound 1 µM, first compound 0.316 µM
[16] = second compound 1 µM, first compound 1 µM
[17] = second compound 1 µM, first compound 3.16 µM
[18] = second compound 1 µM, first compound 10 µM
[19] = second compound 3.16 µM, first compound 0.0316 µM
[20] = second compound 3.16 µM, first compound 0.1 µM
[21] = second compound 3.16 µM, first compound 0.316 µM
[22] = second compound 3.16 µM, first compound 1 µM
[23] = second compound 3.16 µM, first compound 3.16 µM
[24] = second compound 3.16 µM, first compound 10 µM
[25] = second compound 10 µM, first compound 0.0316 µM
[26] = second compound 10 µM, first compound 0.1 µM
[27] = second compound 10 µM, first compound 0.316 µM
[28] = second compound 10 µM, first compound 1 µM
[29] = second compound 10 µM, first compound 3.16 µM
[30] = second compound 10 µM, first compound 10 µM
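Note: cells exposed to agents for seven days before viability read.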
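Throughout, for viability, T/C: 100% = DMSO vehicle control wells and lower values mean fewer viable cells.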

SMILES	IC50 (second compound 0.1 µM) [µM]	IC50 (second compound 0.316 µM) [µM]	IC50 (second compound 1 µM) [µM]	IC50 (second compound 3.16 µM) [µM]	viability, T/C [1] [%]	viability, T/C [2] [%]	viability, T/C [3] [%]	viability, T/C [4] [%]	viability, T/C [5] [%]	viability, T/C [6] [%]	viability, T/C [7] [%]	viability, T/C [8] [%]	viability, T/C [9] [%]	viability, T/C [10] [%]	viability, T/C [11] [%]	viability, T/C [12] [%]	viability, T/C [13] [%]	viability, T/C [14] [%]	viability, T/C [15] [%]	viability, T/C [16] [%]	also measured
COC(=O)c1ccc2c(C(=Nc3ccc(N(C)C(=O)CN4CCN(C)CC4)cc3)c3ccccc3)c(O)[nH]c2c1 + C=CC(=O)N1CCN(c2nc(OCC3CCCN3C)nc3c2CCN(c2cccc4cccc(C)c24)C3)CC1CC#N	> 10	> 10	> 10	< 0.0316	77.4	65.8	59.2	71.7	89.7	64	83.6	87.5	76.2	77.1	78.6	70	88	78.8	69.8	62.1	IC50 (second compound 0.0316 µM): > 10 µM; viability, T/C (second compound 0.0316 µM, first compound 0.0316 µM): 86.4%; viability, T/C (second compound 0.0316 µM, first compound 0.1 µM): 95.1%; viability, T/C (second compound 0.0316 µM, first compound 0.316 µM): 77.5%; viability, T/C (second compound 0.0316 µM, first compound 1 µM): 83.6%; viability, T/C (second compound 0.0316 µM, first compound 3.16 µM): 81.8%; viability, T/C (second compound 0.0316 µM, first compound 10 µM): 93.2%; viability, T/C [17]: 69.1%; viability, T/C [18]: 65.7%; viability, T/C [19]: 39.6%; viability, T/C [20]: 46.6%; viability, T/C [21]: 34.4%; viability, T/C [22]: 26.9%; viability, T/C [23]: 18.7%; viability, T/C [24]: 3.45%
O=C(c1cc(Cc2n[nH]c(=O)c3ccccc23)ccc1F)N1CCN(C(=O)C2CC2)CC1 + C=CC(=O)N1CCN(c2nc(=O)n(-c3c(C)ccnc3C(C)C)c3nc(-c4c(O)cccc4F)c(F)cc23)C(C)C1	> 10	> 10	> 10	> 10	83.6	96	78.6	110	82.6	71.8	103	103	108	99	105	87.9	121	105	98.7	82.9	IC50 (second compound 10 µM): > 10 µM; viability, T/C [17]: 98.9%; viability, T/C [18]: 99.4%; viability, T/C [19]: 86.4%; viability, T/C [20]: 98.1%; viability, T/C [21]: 82.5%; viability, T/C [22]: 103%; viability, T/C [23]: 85.2%; viability, T/C [24]: 89.8%; viability, T/C [25]: 84.1%; viability, T/C [26]: 83.5%; viability, T/C [27]: 83.2%; viability, T/C [28]: 73.5%; viability, T/C [29]: 78.2%; viability, T/C [30]: 77.8%
O=C(c1cc(Cc2n[nH]c(=O)c3ccccc23)ccc1F)N1CCN(C(=O)C2CC2)CC1 + CNCc1ccccc1-c1csc(C(C)Nc2nc(C)nc3cc(OC)c(OC)cc23)c1	> 10	> 10	> 10	< 0.0316	98.5	99.5	84.5	87.5	110	96.5	103	80.8	90.3	85.3	84	68.7	99.2	86.8	88.5	73.8	IC50 (second compound 10 µM): < 0.0316 µM; viability, T/C [17]: 87.1%; viability, T/C [18]: 78.2%; viability, T/C [19]: 5.86%; viability, T/C [20]: 1.28%; viability, T/C [21]: 0.99%; viability, T/C [22]: 1.9%; viability, T/C [23]: 1.8%; viability, T/C [24]: 2.47%; viability, T/C [25]: 3.64%; viability, T/C [26]: 5.22%; viability, T/C [27]: 3.94%; viability, T/C [28]: 5.16%; viability, T/C [29]: 0.77%; viability, T/C [30]: 1.05%
CCNC(=O)CC1N=C(c2ccc(Cl)cc2)c2cc(OC)ccc2-n2c(C)nnc21 (stereo not given) + CNCc1ccccc1-c1csc(C(C)Nc2nc(C)nc3cc(OC)c(OC)cc23)c1	> 10	> 10	> 10	< 0.0316	86.7	84.3	68.2	68.3	72.8	54.4	88.2	82.8	85.5	73.5	72.7	67.1	87.3	71.2	67.2	61	IC50 (second compound 10 µM): < 0.0316 µM; viability, T/C [17]: 56.8%; viability, T/C [18]: 66.3%; viability, T/C [19]: 0.46%; viability, T/C [20]: 0.86%; viability, T/C [21]: 2.72%; viability, T/C [22]: 0.85%; viability, T/C [23]: 2.19%; viability, T/C [24]: 1.93%; viability, T/C [25]: 0.24%; viability, T/C [26]: 1.77%; viability, T/C [27]: 0.22%; viability, T/C [28]: 0.26%; viability, T/C [29]: 0.43%; viability, T/C [30]: 0.23%
